In the experiment the target is T1, hTLR9 (Homo sapiens, UniProt Q9NR96).
T1 sequence (Q9NR96 26-1032): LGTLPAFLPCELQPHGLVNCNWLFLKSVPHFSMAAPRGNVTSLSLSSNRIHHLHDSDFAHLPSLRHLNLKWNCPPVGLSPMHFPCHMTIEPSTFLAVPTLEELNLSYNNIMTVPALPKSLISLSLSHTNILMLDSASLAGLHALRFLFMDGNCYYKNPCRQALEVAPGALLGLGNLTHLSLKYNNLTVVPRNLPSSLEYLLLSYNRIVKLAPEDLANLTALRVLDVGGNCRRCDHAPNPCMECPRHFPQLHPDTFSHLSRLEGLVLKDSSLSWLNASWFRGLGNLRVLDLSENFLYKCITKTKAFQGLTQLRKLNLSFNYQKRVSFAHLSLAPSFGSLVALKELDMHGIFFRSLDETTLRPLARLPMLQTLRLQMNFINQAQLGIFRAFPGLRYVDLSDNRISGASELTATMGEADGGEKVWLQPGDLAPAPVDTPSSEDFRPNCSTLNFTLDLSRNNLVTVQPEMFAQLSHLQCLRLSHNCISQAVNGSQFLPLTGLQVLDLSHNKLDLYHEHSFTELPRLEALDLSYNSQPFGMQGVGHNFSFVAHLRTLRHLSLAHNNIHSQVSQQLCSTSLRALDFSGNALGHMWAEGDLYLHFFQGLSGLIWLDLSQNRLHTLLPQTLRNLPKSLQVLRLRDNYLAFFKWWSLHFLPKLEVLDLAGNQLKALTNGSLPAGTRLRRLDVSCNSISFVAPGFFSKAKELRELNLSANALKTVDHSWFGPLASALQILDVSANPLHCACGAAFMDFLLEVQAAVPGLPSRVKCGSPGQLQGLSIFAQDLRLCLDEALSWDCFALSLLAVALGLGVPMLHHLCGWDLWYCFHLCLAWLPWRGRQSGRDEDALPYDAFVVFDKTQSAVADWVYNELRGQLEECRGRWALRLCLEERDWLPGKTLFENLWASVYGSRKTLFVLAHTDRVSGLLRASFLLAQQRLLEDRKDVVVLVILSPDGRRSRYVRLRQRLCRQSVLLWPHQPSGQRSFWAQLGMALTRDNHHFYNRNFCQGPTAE
In words: HEK293-Blue-hTLR-9 cells assay (SEAP reporter, ODN2006 stimulation). It is filed as cell-based. Particulars: HEK293-Blue-hTLR9 cells, ODN2006, 20 hrs; 0.032 is the lowest tested concentration; read-out: HEK/hTLR9 IC50. As to the method: The following tests were carried out in order to determine the activity of the compounds of formula (I) or (Ia) in HEK293-Blue-hTLR-7/8/9 cells assay.
HEK293-Blue-hTLR-9 cells assay:
A stable HEK293-Blue-hTLR-9 cell line was purchased from InvivoGen (Cat.#: hkb-htlr9, San Diego, California, USA). These cells were originally designed for studying the stimulation of human TLR9 by monitoring the activation of NF-κB. A SEAP (secreted embryonic alkaline phosphatase) reporter gene was placed under the control of the IFN-β minimal promoter fused to five NF-κB and AP-1-binding sites. The SEAP was induced by activating NF-κB and AP-1 via stimulating HEK-Blue hTLR9 cells with TLR9 ligands. Therefore the reporter expression was declined by TLR9 antagonist under the stimulation of a ligand, such as ODN2006 (Cat.#: tlrl-2006-1, Invivogen, San Diego, California, USA), for incubation of 20 hrs. The cell culture supernatant SEAP reporter activity was determined using QUANTI-Blue™ kit (Cat.#: rep-qb1, Invivogen, San Diego, California, USA) at a wavelength of 640 nm, a detection medium that turns purple or blue in the presence of alkaline phosphatase.
HEK293-Blue-hTLR9 cells were incubated at a density of 250,000∼450,000 cells/mL in a volume of 170 µL in a 96-well plate in Dulbecco's Modified Eagle's medium (DMEM) containing 4.5 g/L glucose, 50 U/mL penicillin, […], […], 2 mM L-glutamine, 10% (v/v) heat-inactivated fetal bovine serum with addition of 20 µL test compound in a serial dilution in the presence of final DMSO at 1% and 10 µL of 20uM ODN2006 in above DMEM, perform incubation under 37 °C in a CO2 incubator for 20 hrs. Then 20 µL of the supernatant from each well was incubated with 180 µL Quanti-blue substrate solution at 37 °C for 2 hrs and the absorbance was read at 620∼655 nm using a spectrophotometer. The signalling pathway that TLR9 activation leads to downstream NF-κB activation has been widely accepted, and therefore similar reporter assay was modified for evaluating TLR9 antagonist.
On to `C[C@@H]1CN(c2ccc(C#N)c3ncccc23)C[C@H](CN2Cc3ccc(N4C5CCC4CNC5)cc3C2)O1` [Example 43, 5-[(2S,6R)-2-[[5-(3,8-diazabicyclo[3.2.1]octan-8-yl)isoindolin-2-yl]methyl]-6-methyl-morpholin-4-yl]quinoline-8-carbonitrile], for which the IC50 was found to be 88 nM.
Then `C[C@@H]1CN(c2ccc(Cl)c3nccnc23)C[C@H](CN2Cc3ccc(N4CCNCC4)cc3C2)O1` [Example 33, (2R,6S)-4-(8-chloroquinoxalin-5-yl)-2-methyl-6-[(5-piperazin-1-ylisoindolin-2-yl)methyl]morpholine], with 174 nM; and `C[C@@H]1CN(c2ccc(C#N)c3ncccc23)C[C@H](CN2Cc3ccc(N4CCNCC4)nc3C2)O1` [Example 80, 5-[(2R,6S)-2-methyl-6-[(2-piperazin-1-yl-5,7-dihydropyrrolo[3,4-b]pyridin-6-yl)methyl]morpholin-4-yl]quinoline-8-carbonitrile], with 56 nM; and `COCCN1CCN(c2ccc3c(c2)CN(C[C@H]2CN(c4ccc(C#N)c5nccnc45)C[C@@H](C)O2)C3)CC1` [Example 37, 8-[(2S,6R)-2-[[5-[4-(2-methoxyethyl)piperazin-1-yl]isoindolin-2-yl]methyl]-6-methyl-morpholin-4-yl]quinoxaline-5-carbonitrile], with 260 nM.
For the compound “5-[(2S,6R)-2-[[5-[3-(hydroxymethyl)piperazin-1-yl]isoindolin-2-yl]methyl]-6-methyl-morpholin-4-yl]quinoline-8-carbonitrile [Example 85]”, the IC50 was determined as 51 nM.
Consider `CC1CN(c2ccc3c(c2)CN(C[C@H]2CN(c4ccc(C#N)c5nccnc45)C[C@@H](C)O2)C3)CCN1` (stereo partly drawn) [Example 36, 8-[(2R,6S)-2-methyl-6-[[5-(3-methylpiperazin-1-yl)isoindolin-2-yl]methyl]morpholin-4-yl]quinoxaline-5-carbonitrile], for which the IC50 is 57 nM.
In the case of `C[C@@H]1CN(c2ccc(C#N)n3nccc23)C[C@H](CN2Cc3ccc(N4CCNCC4)cc3C2)O1` [Example 4, 4-[(2R,6S)-2-methyl-6-[(5-piperazin-1-ylisoindolin-2-yl)methyl]morpholin-4-yl]pyrazolo[1,5-a]pyridine-7-carbonitrile], the IC50 is 55 nM.
As to `C[C@@H]1CN(c2ccc(C#N)c3nccnc23)C[C@H](CN2Cc3ccc(N4C5CCC4CNC5)cc3C2)O1` [Example 41, 8-[(2S,6R)-2-[[5-(3,8-diazabicyclo[3.2.1]octan-8-yl)isoindolin-2-yl]methyl]-6-methyl-morpholin-4-yl]quinoxaline-5-carbonitrile], the IC50 is 227 nM.
For `C[C@@H]1CN(c2ccc(C#N)c3ncccc23)C[C@H](CN2CCc3cc(N4CCNCC4)ncc3C2)O1` [Example 70, 5-[(2R,6S)-2-methyl-6-[(6-piperazin-1-yl-3,4-dihydro-1H-2,7-naphthyridin-2-yl)methyl]morpholin-4-yl]quinoline-8-carbonitrile], the IC50 was less than 32 nM.
Turning to `C[C@@H]1CN(c2ccc(C#N)n3ncc(F)c23)C[C@H](CN2Cc3cc(N4CCNCC4)cnc3C2)O1` [Example 29, 3-fluoro-4-[(2R,6S)-2-methyl-6-[(3-piperazin-1-yl-5,7-dihydropyrrolo[3,4-b]pyridin-6-yl)methyl]morpholin-4-yl]pyrazolo[1,5-a]pyridine-7-carbonitrile], the IC50 was found to be 134 nM.
`C[C@@H]1CN(c2ccc(C#N)c3ncccc23)C[C@H](CN2Cc3cnc(N4CCNCC4)cc3C2)O1` [Example 61, 5-[(2R,6S)-2-methyl-6-[(6-piperazin-1-yl-1,3-dihydropyrrolo[3,4-c]pyridin-2-yl)methyl]morpholin-4-yl]quinoline-8-carbonitrile]: the IC50 amounted to 59 nM.
As to `C[C@@H]1CN(c2ccc(C#N)c3ncccc23)C[C@H](CN2Cc3ccc(N4CC5CCC(C4)N5)cc3C2)O1` [Example 42, 5-[(2S,6R)-2-[[5-(3,8-diazabicyclo[3.2.1]octan-3-yl)isoindolin-2-yl]methyl]-6-methyl-morpholin-4-yl]quinoline-8-carbonitrile], the IC50 worked out at 97 nM.
For “3-fluoro-4-[(2R,6S)-2-methyl-6-[(5-piperazin-1-ylisoindolin-2-yl)methyl]morpholin-4-yl]pyrazolo[1,5-a]pyridine-7-carbonitrile [Example 7]”, the IC50 turned out to be 91 nM.
Then `COC(=O)C1CN(c2ccc3c(c2)CN(C[C@H]2CN(c4ccc(C#N)c5ncccc45)C[C@@H](C)O2)C3)CCN1` (stereo partly drawn) [Example 67, Methyl 4-[2-[[(2S,6R)-4-(8-cyano-5-quinolyl)-6-methyl-morpholin-2-yl]methyl]isoindolin-5-yl] piperazine-2-carboxylate], with 221 nM; and `C[C@@H]1CN(c2ccc(C#N)c3ncccc23)C[C@H](CN2Cc3cc(N4CCNCC4)cnc3C2)O1` [Example 20, 5-[(2R,6S)-2-methyl-6-[(3-piperazin-1-yl-5,7-dihydropyrrolo[3,4-b]pyridin-6-yl)methyl]morpholin-4-yl]quinoline-8-carbonitrile], with 48 nM.
Then `C[C@@H]1CN(c2ccc(C#N)c3ncccc23)C[C@H](CN2Cc3cnc(N4CCNCC4)nc3C2)O1` [Example 63, 5-[(2R,6S)-2-methyl-6-[(2-piperazin-1-yl-5,7-dihydropyrrolo[3,4-d]pyrimidin-6-yl)methyl]morpholin-4-yl]quinoline-8-carbonitrile], with 120 nM.
The value for `C[C@@H]1CN(c2ccc(C#N)n3nccc23)C[C@H](CN2Cc3ccc(C4CCNCC4)cc3C2)O1` [Example 8, 4-[(2R,6S)-2-methyl-6-[[5-(4-piperidyl)isoindolin-2-yl]methyl]morpholin-4-yl]pyrazolo[1,5-a]pyridine-7-carbonitrile] was 62 nM.
Consider `C[C@@H]1CN(c2ccc(C#N)n3nccc23)C[C@H](CN2CCc3cnccc3C2)O1` [Example R1, 4-[(2S,6R)-2-(3,4-dihydro-1H-2,6-naphthyridin-2-ylmethyl)-6-methyl-morpholin-4-yl]pyrazolo[1,5-a]pyridine-7-carbonitrile, reference compound], for which the IC50 worked out at 50600 nM.
The value for `C[C@@H]1CN(c2ccc(C#N)c3ncsc23)C[C@H](CN2Cc3cc(N4CCNCC4)cnc3C2)O1` [Example 25, 7-[(2R,6S)-2-methyl-6-[(3-piperazin-1-yl-5,7-dihydropyrrolo[3,4-b]pyridin-6-yl)methyl]morpholin-4-yl]-1,3-benzothiazole-4-carbonitrile] was 63 nM; that for `C[C@@H]1CN(c2ccc(Cl)c3ncccc23)C[C@H](CN2Cc3ccc(N4CCNCC4)cc3C2)O1` [Example 31, (2R,6S)-4-(8-chloro-5-quinolyl)-2-methyl-6-[(5-piperazin-1-ylisoindolin-2-yl)methyl]morpholine] was 168 nM.
For `C[C@@H]1CN(c2ccc(C#N)c3nccnc23)C[C@H](CN2Cc3ccc(N4CC5COCC(C4)N5)cc3C2)O1` [Example 49, 8-[(2R,6S)-2-methyl-6-[[5-(3-oxa-7,9-diazabicyclo[3.3.1]nonan-7-yl)isoindolin-2-yl]methyl]morpholin-4-yl]quinoxaline-5-carbonitrile], the IC50 stood at 164 nM.

These data come from patent publication EP3623369A1, “NOVEL MORPHOLINYL AMINE COMPOUNDS FOR THE TREATMENT OF AUTOIMMUNE DISEASE” (F. Hoffmann-La Roche AG, priority 2018, dated 2020).
